# According to publication PMC10530836, “Synthesis, Molecular Docking, and Biological Evaluation of Novel Anthranilic Acid Hybrid and Its Diamides as Antispasmodics” (International Journal of Molecular Sciences, 2023):
# What was measured:
# human albumin = biological target: T1, human albumin (Homo sapiens, UniProt P02768); test: Inhibition of albumin denaturation (anti-inflammatory activity); type: biochemical; conditions: heat-induced denaturation
# T1 construct: purchased Octapharma (IP) SPRL Albunorm 20
# T1 sequence (P02768 25-609): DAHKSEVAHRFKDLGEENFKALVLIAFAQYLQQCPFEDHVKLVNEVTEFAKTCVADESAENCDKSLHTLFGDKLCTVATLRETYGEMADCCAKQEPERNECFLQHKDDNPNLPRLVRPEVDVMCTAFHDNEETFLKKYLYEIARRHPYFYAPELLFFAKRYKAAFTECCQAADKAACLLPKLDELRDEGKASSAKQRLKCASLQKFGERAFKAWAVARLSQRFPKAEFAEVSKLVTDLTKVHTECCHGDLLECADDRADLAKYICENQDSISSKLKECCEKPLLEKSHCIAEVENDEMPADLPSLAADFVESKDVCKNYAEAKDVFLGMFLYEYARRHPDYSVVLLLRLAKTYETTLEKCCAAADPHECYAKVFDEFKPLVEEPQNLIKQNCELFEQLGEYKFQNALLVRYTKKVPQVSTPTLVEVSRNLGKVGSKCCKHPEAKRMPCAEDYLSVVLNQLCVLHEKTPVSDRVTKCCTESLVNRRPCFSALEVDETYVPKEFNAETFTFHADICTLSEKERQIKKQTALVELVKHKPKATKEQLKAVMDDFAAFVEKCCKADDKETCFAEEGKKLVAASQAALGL
# Protocol: Anti-denaturation assay was conducted as described by Kumari et al. with slight modifications. The reaction mixture consisted of 0.5 mL of 5% aqueous solution of human albumin (Albunorm 20, Octapharma (IP) SPRL, 1070 Anderlecht, Belgium) and 0.2 mL of the tested compound, dissolved in DMSO, at different concentrations (20–500 μg/mL). The samples were incubated at 37 °C for 15 min. After that, 2.5 mL phosphate-buffered saline (pH 6.3) was added to each tube and the samples were heated for 30 min to 80 °C and then cooled for 5 min. Turbidity was measured spectrophotometrically at 660 nm (Cary 60 UV-Vis, Agilent Technologies, Santa Clara, CA, USA). For the blank sample, a mixture of 2.5 mL buffer and 0.2 mL DMSO was used instead of the compounds, while the product control test lacked the compounds’ concentration having 0.5 mL serum albumin, and 2.5 mL buffer only. The percentage inhibition of protein denaturation was calculated as follows:Percentage of inhibition denaturation = (Absorbancecontrol − Absorbancesample) / Absorbancecontrol × 100
# The control represents 100% protein denaturation.
# Commercially available over-the-counter non-steroidal anti-inflammatory drugs diclofenac sodium and acetylsalicylic acid were used for comparison. Their anti-inflammatory effect was determined as a percentage of inhibition of albumin denaturation following the same protocol as for the novel compounds.
# [1] = tested on: gastric smooth muscle preparations (SMPs) from Wistar rats; test: Ex vivo smooth muscle relaxant activity; set-up: species or system rat; conditions: for Tonic relaxation: 5 × 10^−5 mol/L, SM pre-contracted with 1 × 10^−7 mol/L CCh
# Excerpt: The utilization of an SM preparation from the corpus of a rat stomach that had been pharmacologically pre-contracted was the main goal of our work. The excitatory neurotransmitter acetylcholine (ACh) in the enteric nervous system is appropriate for this purpose. It affects the digestive system by increasing the amplitude of digestive contractions and peristalsis in the stomach. We evaluated the viability of the SM using their stimulatory impact. Via muscarinic (M2 and M3) receptors, ACh and its counterpart cholinergic agonist carbachol (CCh, carbamylcholine) cause excitatory motor responses in GI SM cells. Unlike ACh, which breaks down quickly, CCh has a long-lasting response. Therefore, we used CCh to start the induced muscle contraction. […] A persistent, prolonged tonic contraction that is brought on by the extracellular inflow of Ca^2+ into SM cells occurs next. The relaxation effects of the tested compounds 3 and 4a–e were investigated by cumulative addition of the tested substances in concentrations of 1 × 10^−7, 5 × 10^−7, 1 × 10^−6, 5 × 10^−6, 1 × 10^−5, 5 × 10^−5, and 1 × 10^−4 mol/L at the plateau of the CCh-induced contraction. In order to measure relaxation, the percent decrease in contractile tension from the 1 × 10^−7 mol/L CCh-induced maximum was used. All subsequent reactions to chemicals were reported as a percentage of the submaximal SM contractile responses elicited by CCh, which were taken as 100% values and expressed as a base value for all subsequent responses (Figure 10A). Results were presented as mean ± SD.
# SMPs with dimensions 1.0–1.5 mm wide and 10–12 mm long were obtained from adult male Wistar rats weighing about 270 g. […]
# The pH of the solution was measured before each experiment using a pH-meter HI5521 (Hanna Instruments, Smithfield, RI, USA). […]
# Experiments were performed to investigate the cumulative dose-dependent relaxation effects of compounds 3 and 4a–e on gastric SMPs, pre-contracted with CCh (1 × 10^−^7 mol/L). The CA of the SMPs and the changes in substance-evoked reactions were detected isometrically. […]
SMILES,IC50 (human albumin),Tonic relaxation [1],effect on amplitude of spontaneous contractions ([1]; submaximal concentration of 5 × 10^−5 mol/L)
"Nc1ccccc1C(=O)NCCc1cccc(Cl)c1 [Compound 3, 2-amino-N-(3-chlorophenethyl)benzamide]",2400 µM,59%,more than 50%
"CC(=O)Nc1ccccc1C(=O)NCCc1cccc(Cl)c1 [Compound 4a, 2-acetamido-N-(3-chlorophenethyl)benzamide]",,52%,
"O=C(Nc1ccccc1C(=O)NCCc1cccc(Cl)c1)c1ccccc1 [Compound 4b, 2-benzamido-N-(3-chlorophenethyl)benzamide]",1950 µM,,
